Experimental data from patent US20100160454A1, “ANTIMICROBIAL AGENTS, COMPOSITIONS AND PRODUCTS CONTAINING THE SAME, AND METHODS OF USING THE COMPOSITIONS AND PRODUCTS” (Eastman Chemical Company, priority 2008, published 2010).

Legend:
Experiment in all cases: Microbiological challenge testing in BPW broth, graded subculture counts
Assay type in all cases: cell-based
[1] = tested on: Aeromonas sp. Wild type
Procedure: (§1) The microorganisms in the table below were used in challenge tests. They were either ATCC (American Type Culture Collection) or “wild type” as indicated. Wild type organisms were problematic organisms previously isolated from chemical products.
(§2) All of the microorganisms were grown in Tryptose Soy Broth (TSB), DIFCO™ available from Becton, Dickinson and Company, containing 1% dextrose. Candida albicans and Aspergillus niger, were incubated at 22° C.+/−2° C. for at least 96 hours. All bacteria were incubated at 35° C.+/−2° C. in a humidified incubator for at least 96 hours.
(§3) The following procedure was followed to determine the amount of each challenge material (inoculum broth) needed to produce a 10^8 CFU/mL challenge, which is equivalent to a final test-sample microbial concentration of 10^5 to 10^6 CFU/mL (CFU=colony forming units).
(§4) Using a sterile pipette, 1 mL of the growth from each TSB culture was transferred into tubes of 9 mL buffered water (pH 7.2 phosphate buffer) and mixed thoroughly. This was repeated to make serial 1:10 dilutions. Then, 0.1 mL of each sample and dilution was inoculated onto agar plates to produce the equivalent of a further 1:10 dilution. (C. albicans and A. niger were inoculated onto SABD and bacteria were inoculated onto Plate Count Agar (PCA), DIFCO™ available from Becton, Dickinson and Company.) (The normal volume plated for most samples was 0.1 mL. Some samples that could be very low in micro-organisms (high dilutions) were plated using 0.5 mL of inoculum, in order to produce reproducible counts.) The samples were distributed on the plates using the spread-plate technique. The spread-plate technique is carried out by spreading the sample over the entire plate surface using a sterile spreading rod while rotating the plate with a rotary auto-plater. After the inoculum was absorbed completely by the agar, each plate was inverted and incubated (fungi at 22° C.+/−2° C. and bacteria at 35° C.+/−2° C.).
(§5) After incubation for at least 48 hours, colonies that had developed on the agar plates were counted (CFU) and recorded with the corresponding dilution. If counting had to be delayed temporarily, plates were refrigerated, preferably no more than 24 hours, until they could be counted. The number of CFU/mL was determined by multiplying the plate count by the dilution factor of the plate counted.
(§6) Turbidity in Nepholemetric Turbidity Units (NTU) was measured for each serial dilution using the HF-Micro 100 Model Turbidimeter. For each microorganism, the plate counts were compared to the turbidity readings.
(§7) Control substrates (“broth alone”) were prepared for each microorganism separately in triplicate by adding 13.5 mL of Buffered Peptone Water broth (BPW) containing 1% dextrose to each 20-mL glass tube, then adding 1.5 mL challenge material to produce a final concentration at time zero of 10^5 to 10^6 CFU/mL and a total volume of 15 mL.
(§8) Test sample substrates were prepared containing each test material listed below at the concentrations shown for challenge testing with each microorganism separately. Sample substrates were prepared in triplicate, except the substrates containing butoxyethanol which were prepared in duplicate. Substrates were prepared by adding BPW containing 1% dextrose to each 20-mL glass tube, then adding the test material in the amount appropriate to achieve the desired weight/volume percent and to achieve a total volume of BPW plus dextrose plus test material of 13.5 mL. Then 1.5 mL challenge material was added to produce a final concentration at time zero of 10^5 to 10^6 CFU/mL and a total test sample substrate volume of 15 mL.

[2] = tested on: Staphylococcus aureus ATCC 25923; conditions: S. aureus
Procedure: as §1, §2, §3, §4, §5, §6, §7, §8

[3] = tested on: Aspergillus niger Wild type; conditions: A. niger
Procedure: as §1, §2
Candida albicans and Aspergillus niger were also grown on Sabouraud Dextrose Agar (SABD) at 22° C. for 7 to 14 days or until full sporulation was achieved.
as §3, §4, §5, §6
Aspergillus niger cultures were harvested and spores dislodged from the SABD on which they were grown by rubbing the growth gently with a sterile inoculating loop. The spores were then mixed into the broth culture that had been incubated with a sterile magnetic stir bar to reduce pellicle formation. The spore-culture mixture was filtered repeatedly through sterile, nonabsorbent cotton and harvested repeatedly, adjusting vegetative cells and spores to a level of 1.0×10^8. A hemocytometer was used to verify the final challenge concentration.
as §7

With `CC(O)CO` (stereo not drawn) [PG, propylene glycol] the “Aeromonas sp growth grade, 3 day” value ([1]; 0.5% weight/volume) was 5 (More than 10,000 colonies estimated (thus more than 100,000 CFU/mL)), the “Aeromonas sp growth grade, 14 day” value ([1]; 0.5% weight/volume) was 5 (More than 10,000 colonies estimated (thus more than 100,000 CFU/mL)) and the “Aeromonas sp growth grade, 30 day” value ([1]; 0.5% weight/volume) was 5 (More than 10,000 colonies estimated (thus more than 100,000 CFU/mL)). The “Aeromonas sp growth grade, 3 day” value ([1]; 1.25% weight/volume) was 5 (More than 10,000 colonies estimated (thus more than 100,000 CFU/mL)), the “Aeromonas sp growth grade, 14 day” value ([1]; 1.25% weight/volume) was 5 (More than 10,000 colonies estimated (thus more than 100,000 CFU/mL)) and the “Aeromonas sp growth grade, 30 day” value ([1]; 1.25% weight/volume) was 5 (More than 10,000 colonies estimated (thus more than 100,000 CFU/mL)). The “Aeromonas sp growth grade, 3 day” value ([1]; 2.5% weight/volume) was 5 (More than 10,000 colonies estimated (thus more than 100,000 CFU/mL)), the “Aeromonas sp growth grade, 14 day” value ([1]; 2.5% weight/volume) was 5 (More than 10,000 colonies estimated (thus more than 100,000 CFU/mL)) and the “Aeromonas sp growth grade, 30 day” value ([1]; 2.5% weight/volume) was 5 (More than 10,000 colonies estimated (thus more than 100,000 CFU/mL)). For the same compound, the “Aeromonas sp growth grade, 3 day” value ([1]; 5.0% weight/volume) was 5 (More than 10,000 colonies estimated (thus more than 100,000 CFU/mL)), the “Aeromonas sp growth grade, 14 day” value ([1]; 5.0% weight/volume) was 4 (1000 to 10,000 colonies countable (thus 10,000 CFU/mL to 100,000 CFU/mL)) and the “Aeromonas sp growth grade, 30 day” value ([1]; 5.0% weight/volume) was 4 (1000 to 10,000 colonies countable (thus 10,000 CFU/mL to 100,000 CFU/mL)). The Grade ([2]; 0.5% (wt/vol), 3 day) was 5 (More than 10,000 colonies estimated (thus more than 100,000 CFU/mL)), the Grade ([2]; 0.5% (wt/vol), 14 day) was 4 (1000 to 10,000 colonies countable (thus 10,000 CFU/mL to 100,000 CFU/mL)) and the Grade ([2]; 0.5% (wt/vol), 30 day) was 4 (1000 to 10,000 colonies countable (thus 10,000 CFU/mL to 100,000 CFU/mL)). The Grade ([2]; 1.25% (wt/vol), 3 day) was 4 (1000 to 10,000 colonies countable (thus 10,000 CFU/mL to 100,000 CFU/mL)), the Grade ([2]; 1.25% (wt/vol), 14 day) was 4 (1000 to 10,000 colonies countable (thus 10,000 CFU/mL to 100,000 CFU/mL)) and the Grade ([2]; 1.25% (wt/vol), 30 day) was 4 (1000 to 10,000 colonies countable (thus 10,000 CFU/mL to 100,000 CFU/mL)). The Grade ([2]; 2.5% (wt/vol), 3 day) was 4 (1000 to 10,000 colonies countable (thus 10,000 CFU/mL to 100,000 CFU/mL)), the Grade ([2]; 2.5% (wt/vol), 14 day) was 4 (1000 to 10,000 colonies countable (thus 10,000 CFU/mL to 100,000 CFU/mL)) and the Grade ([2]; 2.5% (wt/vol), 30 day) was 4 (1000 to 10,000 colonies countable (thus 10,000 CFU/mL to 100,000 CFU/mL)). For the same compound, the Grade ([2]; 5.0% (wt/vol), 3 day) was 4 (1000 to 10,000 colonies countable (thus 10,000 CFU/mL to 100,000 CFU/mL)), the Grade ([2]; 5.0% (wt/vol), 14 day) was 4 (1000 to 10,000 colonies countable (thus 10,000 CFU/mL to 100,000 CFU/mL)) and the Grade ([2]; 5.0% (wt/vol), 30 day) was 4 (1000 to 10,000 colonies countable (thus 10,000 CFU/mL to 100,000 CFU/mL)). It also gave a Grade ([3]; 0.5% (wt/vol), 3 day) of 5, a Grade ([3]; 0.5% (wt/vol), 13 day) of 5 and a Grade ([3]; 0.5% (wt/vol), 30 day) of 5. It also gave a Grade ([3]; 1.25% (wt/vol), 3 day) of 5, a Grade ([3]; 1.25% (wt/vol), 13 day) of 5 and a Grade ([3]; 1.25% (wt/vol), 30 day) of 5. For the same compound, the Grade ([3]; 2.5% (wt/vol), 3 day) was 4, the Grade ([3]; 2.5% (wt/vol), 13 day) was 5 and the Grade ([3]; 2.5% (wt/vol), 30 day) was 5. The Grade ([3]; 5.0% (wt/vol), 3 day) was 4, the Grade ([3]; 5.0% (wt/vol), 13 day) was 4 and the Grade ([3]; 5.0% (wt/vol), 30 day) was 4.
